According to patent US10258639B2, “Methods for treating insulin resistance and for sensitizing patients to GLP1 agonist therapy” (Research Development Foundation, priority 2014, dated 2019):

System: INS1 cells
Assay: RNAseq of INS1 cells grown in chronic high glucose compared to controls and stimulated with FSK (Table 2)
Format: cell-based, rat
Settings: Low glucose
Method: INS-1 insulinoma cells were cultured in RPMI (corning cellgro) containing 10% fetal bovine serum (Gemini Bio Products), 100 μg/mL penicillin-streptomycin and 1 mM sodium pyruvate (corning cellgro). MIN6 cells were grown in DMEM (corning cellgro) with 10% FBS, 100 μg/mL penicillin-streptomycin and 70 uM beta-mercaptoethanol. For chronic glucose experiments, cells were maintained under low (2.8 mM) or high (20 mM) glucose for 3 days. Exendin-4 (10 nM), Forskolin (10 μM), KCl (40 mM), DMOG (1 mM) and rapamycin (50 nM) were added to cells as indicated. Cellular cAMP levels were measured using an ELISA kit (Cayman Chemical Company) according to manufacturer's instructions. Total RNAs from cells or primary islets were extracted using Trizol and cDNA was generated using the Transcriptor First Strand cDNA Synthesis kit (Roche Applied Science). cDNAs were quantified on a lightcycler 480 instrument (Roche Applied Science). Gene expression data were presented relative to the expression of housekeeping gene L32 (rat samples) and 18S (mouse and human islets). RNA-Seq libraries were prepared using the mRNA isolation protocol and the NEBNext-Ultra kits from New England Biolabs following the manufacturer's protocols. Libraries were quantitated by Qubit (Invitrogen), and run on a MiSeq instrument with paired-end 75 bp reads using v3 chemistry (Illumina) Data were analyzed by tophat2 and cuffdiff against the mouse mm10 genome build. The GEO accession number for RNAseq studies reported in the paper is GSE60158.

With C=C[C@@]1(C)CC(=O)[C@]2(O)[C@@]3(C)[C@@H](O)CCC(C)(C)[C@@H]3[C@H](O)[C@H](OC(C)=O)[C@@]2(C)O1 [FSK, Forskolin] the “Agt RNAseq value” (FSK) was 5.2, the “Ahi1 RNAseq value” (FSK) was 32.6 and the “Bhlha15 RNAseq value” (FSK) was 63.9. For the same compound, the “Btg3 RNAseq value” (FSK) was 145.9, the “Bysl RNAseq value” (FSK) was 56.1 and the “Canx RNAseq value” (FSK) was 241.6. For the same compound, the “Ccni RNAseq value” (FSK) was 242.1, the “Chd1 RNAseq value” (FSK) was 20.8 and the “Chrne RNAseq value” (FSK) was 0.2. The “Ctf1 RNAseq value” (FSK) was 0.2, the “Cxcl2 RNAseq value” (FSK) was 1.0 and the “Cyth3 RNAseq value” (FSK) was 30.7. For the same compound, the “Dkc1 RNAseq value” (FSK) was 87.8, the “Epha3 RNAseq value” (FSK) was 0.1 and the “Epor RNAseq value” (FSK) was 0.2. The “Fam49a RNAseq value” (FSK) was 0.2, the “Ficd RNAseq value” (FSK) was 89.9 and the “Fmc1 RNAseq value” (FSK) was 26.0. For the same compound, the “Fn1 RNAseq value” (FSK) was 852.9, the “Gabre RNAseq value” (FSK) was 0.1 and the “Gars RNAseq value” (FSK) was 439.6. The “Ggt5 RNAseq value” (FSK) was 0.3, the “Gnl3 RNAseq value” (FSK) was 31.0 and the “Gnmt RNAseq value” (FSK) was 0.4. For the same compound, the “Gzmm RNAseq value” (FSK) was 0.4, the “Hmcn1 RNAseq value” (FSK) was 0.0 and the “Hmga2 RNAseq value” (FSK) was 0.5. The “Hnrnpa1 RNAseq value” (FSK) was 34.2, the “Hnrpdl RNAseq value” (FSK) was 160.1 and the “Hs3st2 RNAseq value” (FSK) was 0.6. The “Hspa4 RNAseq value” (FSK) was 138.6, the “Hspd1 RNAseq value” (FSK) was 47.6 and the “Icam2 RNAseq value” (FSK) was 0.2. The “Il13ra1 RNAseq value” (FSK) was 0.3, the “Il28ra RNAseq value” (FSK) was 10.0 and the “Kcnb1 RNAseq value” (FSK) was 48.7. For the same compound, the “Kcnj13 RNAseq value” (FSK) was 1.4, the “Kdm1b RNAseq value” (FSK) was 9.1 and the “Kif9 RNAseq value” (FSK) was 0.3. The “LOC683722 RNAseq value” (FSK) was 12.3, the “LOC686295 RNAseq value” (FSK) was 4.9 and the “LOC689959 RNAseq value” (FSK) was 17.9. For the same compound, the “Lrfn5 RNAseq value” (FSK) was 0.1, the “Map3k4 RNAseq value” (FSK) was 25.4 and the “Mef2d RNAseq value” (FSK) was 146.0. The “Megf10 RNAseq value” (FSK) was 0.1, the “Msn RNAseq value” (FSK) was 1.2 and the “Myof RNAseq value” (FSK) was 0.0. For the same compound, the “Nckap1l RNAseq value” (FSK) was 0.2, the “Nkx2-2 RNAseq value” (FSK) was 192.1 and the “Nolc1 RNAseq value” (FSK) was 183.8. For the same compound, the “Notch4 RNAseq value” (FSK) was 0.9, the “Ormdl3 RNAseq value” (FSK) was 286.8 and the “Otop3 RNAseq value” (FSK) was 0.1. For the same compound, the “Pabpc6 RNAseq value” (FSK) was 0.1, the “Pde3b RNAseq value” (FSK) was 103.8 and the “Pde4dip RNAseq value” (FSK) was 61.8. The “Pdrg1 RNAseq value” (FSK) was 43.4, the “Plcb2 RNAseq value” (FSK) was 0.1 and the “RGD1309079 RNAseq value” (FSK) was 1.1. The “RGD1311084 RNAseq value” (FSK) was 0.2, the “Rab3gap2 RNAseq value” (FSK) was 53.1 and the “Rab11fip1 RNAseq value” (FSK) was 11.0. For the same compound, the “Rap2a RNAseq value” (FSK) was 13.5, the “Rho RNAseq value” (FSK) was 0.2 and the “Rpl7a RNAseq value” (FSK) was 0.4. For the same compound, the “Rpl17 RNAseq value” (FSK) was 117.5, the “Rrs1 RNAseq value” (FSK) was 38.4 and the “Sgce RNAseq value” (FSK) was 0.2. The “Smad1 RNAseq value” (FSK) was 48.4, the “Smad3 RNAseq value” (FSK) was 5.7 and the “Snapc1 RNAseq value” (FSK) was 4.6. The “Sncaip RNAseq value” (FSK) was 7.4, the “Spon2 RNAseq value” (FSK) was 0.7 and the “Srp54 RNAseq value” (FSK) was 40.0. The “Stard8 RNAseq value” (FSK) was 0.3, the “Syp RNAseq value” (FSK) was 744.1 and the “T2 RNAseq value” (FSK) was 0.2. The “Taf1a RNAseq value” (FSK) was 9.0, the “Tex38 RNAseq value” (FSK) was 0.5 and the “Tmem114 RNAseq value” (FSK) was 0.2. The “Tomm20 RNAseq value” (FSK) was 90.1, the “Tpp2 RNAseq value” (FSK) was 12.0 and the “Twistnb RNAseq value” (FSK) was 8.1. For the same compound, the “Usp9x RNAseq value” (FSK) was 56.0, the “Vps37b RNAseq value” (FSK) was 52.0 and the “Zfp830 RNAseq value” (FSK) was 20.4. For the same compound, the “Zfp385d RNAseq value” (FSK) was 0.2 and the “Accsl Fold” value (FSK/control) was 2.0.
